Experimental data from patent US20050112573A1, “Method of detecting toxic substance” (priority 2001, published 2005).

System: yeast genes (level of expressed mRNA)
Assay: DNA chip analysis of expressed mRNA of yeast genes after 2 h culture with a toxic chemical substance
Assay type: cell-based, Saccharomyces cerevisiae S288C
Procedure: Yeast (Saccharomyces cerevtisiae S288C (α SUC2mal mel gap2 CUP1)) were cultured at 25° C. on YPD medium (yeast extract 1%, polypepton 2%, glucose 2%). One of toxic chemical substances was added to the cell at logarithmic growth phase, and the cell was further cultured for two hours. Cell was cultured without any chemical substance in the same condition, and was used as control. Concentrations of the chemical substances were defined to inhibit the growth of the yeast but not lead to death.
After the completion of cultivation, the culture was centrifuged to collect the cells. To the cells, sodium acetate buffer (50 mM sodium acetate, 10 mM EDTA, 1% SDS) was added, and the mixture was shaken at 65° C. for five minutes, followed by returning to room temperature, and obtaining the supernatant, which procedure was repeated two times. To the supernatant, ½ amount of a solution of phenol/chloroform was added, and the mixture was centrifuged to give a supernatant, which was added with an equal amount of chloroform, and the mixture was centrifuged to give a supernatant. To the supernatant, an equal amount of isopropanol containing 0.3 M sodium acetate was added, and the mixture was allowed to stand at room temperature for 30 minutes, after which the mixture was centrifuged to give a sediment of the whole RNAs. Seventy % ethanol was added to the sediment, and the mixture was again centrifuged to give a sediment, which was then dried and dissolved in water. mRNA was isolated from the whole RNAs as followings. In view of the fact that a poly A chain is attached to the 3′ terminus of mRNA, a polynucleotide having a poly T structure which was immobilized on the surface of latex beads was used to trap the mRNA, and then the mRNA was washed and eluted with spine column (Oligotex-dT30<Super>mRNA Purification Kit, Takara). Reverse transcription of the mRNA was conducted with a reverse transcriptase (Super Script II Reverse Transcriptase; catalogue No. 18064-014, GibcoBRL) using fluorescence-labeled nucleotides to give cDNAs that were introduced with Cy3-dUTP or Cy5-dUTP during the reverse transcription.
The labeled cDNAs were dissolved in TE buffer (10 mM Tris-HCl/1 mM EDTA, pH8.0), and the solution was dropped on the DNA chip containing the whole genes of yeast (DNA Chip Research Inc. Japan) so that the cDNAs were hybridized on the DNA chip at 65° C. for over 12 hours. The fluoresces intensity of the DNA chip was read with a scanner, and the ratio relative to the fluorescence intensity resulting from the absence of chemical substance was estimated as the following, which is shown in Tables 1 to 9: [formula]
In the Tables, “Intensity” indicated in the rightmost column is a value of the level of expressed mRNA of each gene in control cells as divided by the average level of the expressions of the whole genes.

Na2As [(1)]
The level of expressed mRNA in the presence of chemical substance/ (yeast gene YKL086W, ratio to control without chemical): 1.0 | The level of expressed mRNA in the presence of chemical substance/The level of expressed mRNA in the absence of chemical substance (yeast gene YKL096W): 1.4 | The level of expressed mRNA in the presence of chemical substance/The level of expressed mRNA in the absence of chemical substance (yeast gene YKL139W): 0.9 | The level of expressed mRNA in the presence of chemical substance/ (yeast gene YKL151C, ratio to control without chemical substance, 2 h culture): 1.2 | The level of expressed mRNA in the presence of chemical substance/ (yeast gene YKL153W, ratio to control without chemical substance, 2 h culture): 1.1 | The level of expressed mRNA in the presence of chemical substance/The level of expressed mRNA in the absence of chemical substance (yeast gene YKL165C): 0.5 | The level of expressed mRNA in the presence of chemical substance/The level of expressed mRNA in the absence of chemical substance (yeast gene YKL193C): 1.3 | The level of expressed mRNA in the presence of chemical substance/ (yeast gene YKL195W, ratio to control without chemical substance, 2 h culture): 0.8 | The level of expressed mRNA in the presence of chemical substance/in the absence of chemical substance (yeast gene YKR009C): 1.0 | The level of expressed mRNA in the presence of chemical substance/The level of expressed mRNA in the absence of chemical substance (yeast gene YKR014C): 1.1 | The level of expressed mRNA in the presence of chemical substance/ (yeast gene YKR091W, ratio to control without chemical): 1.5 | The level of expressed mRNA in the presence of chemical substance/ (yeast gene YLR054C, ratio to control without chemical substance, 2 h culture): 2.0 | The level of expressed mRNA in the presence of chemical substance/The level of expressed mRNA in the absence of chemical substance (yeast gene YLR120C): 1.2 | The level of expressed mRNA in the presence of chemical substance/The level of expressed mRNA in the absence of chemical substance (yeast gene YLR136C): 1.3 | The level of expressed mRNA in the presence of chemical substance/ (yeast gene YLR149C, ratio to control without chemical substance, 2 h culture): 1.4 | The level of expressed mRNA in the presence of chemical substance/ (yeast gene YLR152C, ratio to control without chemical substance, 2 h culture): 0.7 | The level of expressed mRNA in the presence of chemical substance/The level of expressed mRNA in the absence of chemical substance (yeast gene YLR178C): 1.7 | The level of expressed mRNA in the presence of chemical substance/ (yeast gene YLR194C, ratio to control without chemical): 2.1 | The level of expressed mRNA in the presence of chemical substance/The level of expressed mRNA in the absence of chemical substance (yeast gene YLR250W): 1.5 | The level of expressed mRNA in the presence of chemical substance/ (yeast gene YLR324W, ratio to control without chemical substance, 2 h culture): 0.7 | The level of expressed mRNA in the presence of chemical substance/The level of expressed mRNA in the absence of chemical substance (yeast gene YLR327C): 5.5 | The level of expressed mRNA in the presence of chemical substance/ (yeast gene YLR350W, ratio to control without chemical substance, 2 h culture): 1.2 | The level of expressed mRNA in the presence of chemical substance/in the absence of chemical substance (yeast gene YLR351C): 1.0 | The level of expressed mRNA in the presence of chemical substance/The level of expressed mRNA in the absence of chemical substance (yeast gene YLR356W): 1.0 | The level of expressed mRNA in the presence of chemical substance/The level of expressed mRNA in the absence of chemical substance (yeast gene YLR362W): 1.1 | The level of expressed mRNA in the presence of chemical substance/in the absence of chemical substance (yeast gene YLR375W): 0.9 | The level of expressed mRNA in the presence of chemical substance/ (yeast gene YLR387C, ratio to control without chemical substance, 2 h culture): 0.9 | The level of expressed mRNA in the presence of chemical substance/The level of expressed mRNA in the absence of chemical substance (yeast gene YLR429W): 0.7 | The level of expressed mRNA in the presence of chemical substance/ (yeast gene YLR460C, ratio to control without chemical substance, 2 h culture): 2.1 | The level of expressed mRNA in the presence of chemical substance/ (yeast gene YML117W, ratio to control without chemical substance, 2 h culture): 0.9 | The level of expressed mRNA in the presence of chemical substance/The level of expressed mRNA in the absence of chemical substance (yeast gene YMR004W): 0.9 | The level of expressed mRNA in the presence of chemical substance/ (yeast gene YMR009W, ratio to control without chemical substance, 2 h culture): 2.3 | The level of expressed mRNA in the presence of chemical substance/ (yeast gene YMR067C, ratio to control without chemical substance, 2 h culture): 0.9 | The level of expressed mRNA in the presence of chemical substance/ (yeast gene YMR090W, ratio to control without chemical substance, 2 h culture): 6.9 | The level of expressed mRNA in the presence of chemical substance/The level of expressed mRNA in the absence of chemical substance (yeast gene YMR094W): 1.0 | The level of expressed mRNA in the presence of chemical substance/ (yeast gene YMR095C, ratio to control without chemical): 1.1 | The level of expressed mRNA in the presence of chemical substance/ (yeast gene YMR097C, ratio to control without chemical substance, 2 h culture): 1.5 | The level of expressed mRNA in the presence of chemical substance/ (yeast gene YMR102C, ratio to control without chemical substance, 2 h culture): 1.0 | The level of expressed mRNA in the presence of chemical substance/The level of expressed mRNA in the absence of chemical substance (yeast gene YMR104C): 1.9 | The level of expressed mRNA in the presence of chemical substance/ (yeast gene YMR107W, ratio to control without chemical substance, 2 h culture): 5.0 | The level of expressed mRNA in the presence of chemical substance/ (yeast gene YMR180C, ratio to control without chemical substance, 2 h culture): 1.2 | The level of expressed mRNA in the presence of chemical substance/ (yeast gene YMR184W, ratio to control without chemical substance, 2 h culture): 1.3 | The level of expressed mRNA in the presence of chemical substance/ (yeast gene YMR191W, ratio to control without chemical substance, 2 h culture): 1.3 | The level of expressed mRNA in the presence of chemical substance/The level of expressed mRNA in the absence of chemical substance (yeast gene YMR219W): 0.7 | The level of expressed mRNA in the presence of chemical substance/The level of expressed mRNA in the absence of chemical substance (yeast gene YMR226C): 1.1 | The level of expressed mRNA in the presence of chemical substance/in the absence of chemical substance (yeast gene YMR267W): 0.8 | The level of expressed mRNA in the presence of chemical substance/The level of expressed mRNA in the absence of chemical substance (yeast gene YMR275C): 0.7 | The level of expressed mRNA in the presence of chemical substance/The level of expressed mRNA in the absence of chemical substance (yeast gene YMR276W): 0.6 | The level of expressed mRNA in the presence of chemical substance/in the absence of chemical substance (yeast gene YMR278W): 0.7 | The level of expressed mRNA in the presence of chemical substance/in the absence of chemical substance (yeast gene YMR293C): 0.9 | The level of expressed mRNA in the presence of chemical substance/ (yeast gene YMR295C, ratio to control without chemical substance, 2 h culture): 1.7 | The level of expressed mRNA in the presence of chemical substance/ (yeast gene YMR316W, ratio to control without chemical substance, 2 h culture): 3.2 | The level of expressed mRNA in the presence of chemical substance/The level of expressed mRNA in the absence of chemical substance (yeast gene YNL006W): 1.1 | The level of expressed mRNA in the presence of chemical substance/The level of expressed mRNA in the absence of chemical substance (yeast gene YNL007C): 0.7 | The level of expressed mRNA in the presence of chemical substance/ (yeast gene YNL044W, ratio to control without chemical substance, 2 h culture): 1.3
